Entries after “also recorded” stand apart in the source; their conditions may differ.
How the values were obtained:
LasR = target: T1, LasR (Pseudomonas aeruginosa, UniProt P25084); experiment: LasR reporter gene assay (E. coli reporter strain, luminescence, competition with OdDHL); type: cell-based; conditions: compound 1 μM or 10 μM in the presence of 1 μM OdDHL (compound 1a)
T1 construct: expressed in transfected cells; host or cells: E. coli DH5α (printed DHSα) co-transformed with pJN105L and pSC11
T1 sequence (P25084 whole entry): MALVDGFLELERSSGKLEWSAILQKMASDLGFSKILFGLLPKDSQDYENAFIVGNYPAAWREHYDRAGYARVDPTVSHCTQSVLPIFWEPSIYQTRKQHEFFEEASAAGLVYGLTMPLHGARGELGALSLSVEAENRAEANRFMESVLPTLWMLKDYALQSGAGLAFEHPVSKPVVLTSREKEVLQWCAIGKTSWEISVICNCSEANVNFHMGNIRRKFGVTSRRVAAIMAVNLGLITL
Protocol: This assay was conducted by modifying a previously reported method. E. coli DHSα co-transformed with two plasmids, pJN105L (LasR expression plasmid) and pSC11 (lasI::lacZ fusion plasmid), was used as a bioassay reporter strain. Overnight culture of the reporter strain with 10 μg/mL gentamicin and 50 μg/mL ampicillin was diluted in the Luria-Bertani (LB) medium (1:100). Then, the reporter strain (optical density at 595 nm [OD595] was 0.3) mixed with either a positive control or the synthesized compound was incubated with OdDHL (Sigma-Aldrich, St. Louis, MO., USA) and 0.4% arabinose (Sigma-Aldrich). After incubation at 37° C. for 1.5 h, OD595 was measured on a VICTOR ×5 multimode plate reader (PerkinElmer, Waltham, Mass., USA). The β-galactosidase activity was determined using a Tropix plus kit (Applied Biosystems, USA), and luminescence was measured on the VICTOR ×5 multimode plate reader. RLU ratio was quantified by dividing luminescence with OD595.
LasR-binding affinity of the synthesized gingerols (compounds 4-10) with various alkyl chain lengths was determined by measuring luminescence of an E. coli reporter strain. The reporter strain carried two plasmids, pJN105L (LasR expression plasmid) (Lee, J. H.; Lequette, Y.; Greenberg, E. P. Activity of purified QscR, a Pseudomonas aeruginosa orphan quorum-sensing transcription factor. Mol. Microbiol. 2006, 59, 602609.) and pSC11 (las1::lacZ fusion plasmid) (Chugani, S. A.; Whiteley, M.; Lee, K. M.; D'Argenio, D.; Manoil, C.; Greenberg, E. P. QscR, a modulator of quorum-sensing signal synthesis and virulence in Pseudomonas aeruginosa. Proc. Natl. Acad. Sci. U.S.A. 2001, 98, 27522757.), which enabled assay of competitive binding of OdDHL with each gingerol derivative 4-10. Antagonistic activities of the synthesized compounds at 1 μM or 10 μM were determined by measuring luminescence in the presence of 1 μM OdDHL (compound 1a) and presented as relative luminescence unit (RLU) ratio. Three compounds (compounds 1b, 1c, and 1d) served as positive controls. […] Just as the LasR inhibition, inhibition of biofilm formation also strengthened as the carbon chain was extended at 10 μM ((B) of FIG. 3). However, inhibition of biofilm formation decreased with 9-gingerol (compound 9) and 10-gingerol (compound 10) at 100 μM ((C) of FIG. 3) because of increased bacterial growth inhibition. […] This effect may be due to the fact that compounds 9 and 10 act as a surfactant, which inhibits bacterial growth. Agonistic activities of compounds 4-10 in an E. coli reporter assay system in the absence of OdDHL were next examined.

P. aeruginosa PA14 [1] = experiment: Static biofilm formation assay; type: cell-based, Pseudomonas aeruginosa; conditions: 10 μM, 24 h, static
Protocol: Overnight culture of P. aeruginosa PA14 (OD595=1.0) was diluted (1:20) with the AB medium (300 mM NaCl, 50 mM MgSO4, 0.2% vitamin-free casamino acids, 10 mM potassium phosphate, 1 mM L-arginine, and 1% glucose, pH 7.5) (1:20) containing with either positive controls or synthesized compounds (0-100 μM). The dilutions were aliquoted into borosilicate bottles, and the bottles were incubated at 37° C. for 24 h without agitation. After that, OD595 of the cell suspension was measured on the VICTOR ×5 multimode plate reader. The biofilm cells attached to the bottle were washed two times with phosphate buffered saline (PBS; 137 mM NaCl, 2.7 mM KCl, 10 mM Na2HPO4, and 2 mM KH2PO4, pH 7.2) and stained with 0.1% crystal violet for […] Next, the stained biofilm cells were eluted with 100% ethyl alcohol, and OD540 was measured on the VICTOR ×5 multimode plate reader. The biofilm formation was quantified by dividing OD540 with OD595.

P. aeruginosa PA14 [2] = experiment: Dynamic biofilm formation assay (drip-flow reactor, CLSM); type: cell-based, Pseudomonas aeruginosa; conditions: 48 h drip-flow reactor
Protocol: Glass slides were dipped into a Petri dish containing 2 mL of a P. aeruginosa PA14 suspension (OD595=1.0) and 18 mL of the AB medium, followed by incubation at 37° C. for 24 h to let the cells adhere to the slides. The slides were then inserted into a drip-flow reactor (DFR-110, BioSurface, Mont., USA). The AB medium with either a positive control or the synthesized compound (0-10 μM) was fed into the reactor continuously via a peristaltic pump (Masterflex C/L tubing pumps, Cole-Parmer, IL, USA) at 0.3 mL/min After operation of the reactor at 37° C. for 48 h, the cells on the slides were washed two times with PBS. The biofilm cells were stained with fluorescein isothiocyanate-labeled type IV ConA (Sigma-Aldrich) and SYPRO Ruby (Ruby, Invitrogen, Carlsbad, CA, USA) for 15 min, respectively. CLSM images were captured via a 20× objective lens (W N-Achroplan 20×/0.5 W [DIC] M27) with green fluorescence (ConA, excitation wavelength of 490 nm, emission wavelength of 525 nm) and red fluorescence (Ruby, excitation wavelength of 470 nm, emission wavelength of 618 nm) and were analyzed in the Zen 2011 software (Carl Zeiss, Jena, Germany). For quantification, biofilm volume (μm^3/μm^2) and average thickness (μm) were measured by means of Comstat2 in ImageJ.
A dynamic biofilm formation assay of compounds 41 and 42 was performed in a drip-flow reactor. Compound 1c served as a positive control, and DMSO served as a negative control. After 48 h drip-flow reactor operation, the biofilm was stained with Ruby and concanavalin A (ConA). Ruby (red) is a reagent for staining protein, and ConA (green) is for carbohydrate of biofilm. As shown in (A) of FIG. 8, the biofilm in the presence of DMSO formed with typical mushroom-like morphology. […] Biofilm volume and thickness with compound 41 were the lowest among the three groups (Table 1).

Row | Structure (SMILES) | LasR-antagonistic activity / LasR-binding affinity (RLU ratio), in words (LasR) | Inhibition of biofilm formation, in words (P. aeruginosa PA14 [1]) | other results
1 | CCCCCC(O)CC(=O)CCc1ccc(F)cc1 (centres unmarked) [Compound 17a, 1-(4-Fluorophenyl)-5-hydroxydecan-3-one] | preserved the LasR-inhibitory activity | the most potent in the series | 
2 | CCCCCCC[C@@H](O)CC(=O)CCc1ccc(O)c(OC)c1 [Compound 29, (R)-5-Hydroxy-1-(4-hydroxy-3-methoxyphenyl)dodecan-3-one] | intermediate LasR-affinity between compound 8 and compound 42 |  | 
3 | CCCCCCCC(O)CC(=O)CCc1ccc(O)c(OC)c1 (racemic) [Compound 8, 5-Hydroxy-1-(4-hydroxy-3-methoxyphenyl)dodecan-3-one] | slightly more potent |  | 
4 | CCCCCC(O)CC(=O)CCc1ccccc1 (centres unmarked) [Compound 15a, 5-Hydroxy-1-phenyldecan-3-one] | significantly decreased the LasR-antagonistic activity |  | 
5 | CCCCCCCC(O)CC(=O)CCc1ccc(O)c(OC)c1 [Compound 1c, (S)-8-gingerol, reference compound] |  |  | Biofilm thickness (P. aeruginosa PA14 [2]; 10 μM compound, CLSM, Comstat2): 17.0 ± 0.4 μm; Biofilm volume (P. aeruginosa PA14 [2]; 10 μM compound, CLSM, Comstat2): 17.0 ± 0.4 μm^3/μm^2; Biofilm formation in CLSM images, in words (P. aeruginosa PA14 [2]; 10 μM, compared with DMSO or compound 1c): relatively thin and sparse
6 | CCCCCCCC(O)CC(=O)CCc1ccc(O)cc1 (centres unmarked) [Compound 18b, 5-Hydroxy-1-(4-hydroxyphenyl)dodecan-3-one] | the most potent among the synthesized compounds | the most potent in the series; also recorded: stronger inhibition of biofilm formation than the known anti-biofilm agent (S)-6-gingerol | 
7 | CCCCCC(O)CC(=O)/C=C/c1ccc(O)c(OC)c1 (centres unmarked) [Compound 21a, (E)-5-Hydroxy-1-(4-hydroxy-3-methoxyphenyl)dec-1-en-3-one] | slightly stronger LasR affinity |  | 
8 | CCCCCC(O)CC(=O)CCc1ccc(O)c(OC)c1 (racemic) [Compound 6, 5-Hydroxy-1-(4-hydroxy-3-methoxyphenyl)decan-3-one] | slightly more potent |  | 
9 | CCCCCCCC(O)CC(=O)CCc1ccc(F)c(OC)c1 (centres unmarked) [Compound 16b, 1-(4-Fluoro-3-methoxyphenyl)-5-hydroxydodecan-3-one] |  | the most potent in the series; also recorded: stronger inhibition of biofilm formation than the known anti-biofilm agent (S)-6-gingerol | 
10 | CCCCCCCC(=O)CCc1ccc(O)c(OC)c1 [Compound 24a, 1-(4-Hydroxy-3-methoxyphenyl)decan-3-one] | significantly weaker LasR-binding affinity | less inhibition of biofilm formation | 
11 | CCCCCCCCCC(=O)CCc1ccc(O)c(OC)c1 [Compound 24b, 1-(4-Hydroxy-3-methoxyphenyl)dodecan-3-one] | significantly weaker LasR-binding affinity | less inhibition of biofilm formation | 
12 | CCCCCCCCCC(=O)/C=C/c1ccc(O)c(OC)c1 [Compound 23b, (E)-1-(4-Hydroxy-3-methoxyphenyl)dodec-1-en-3-one] | significantly weaker LasR-binding affinity | less inhibition of biofilm formation | 
13 | CCCCCC(O)CC(=O)CCc1ccc(O)cc1 (centres unmarked) [Compound 18a, 5-Hydroxy-1-(4-hydroxyphenyl)decan-3-one] | increased the LasR-antagonistic activity | the most potent in the series | 
14 | CCCCCCCC(O)CC(=O)CCc1ccc(O)c(OC)c1 [Compound 42S, (S)-8-gingerol] | almost the same as that of commercial (S)-8-gingerol |  | 
15 | CCCCCCCC(=O)/C=C/c1ccc(O)c(OC)c1 [Compound 23a, (E)-1-(4-Hydroxy-3-methoxyphenyl)dec-1-en-3-one] | significantly weaker LasR-binding affinity | less inhibition of biofilm formation | 
16 | CCCCCCCC(O)CC(=O)CCc1ccc(F)cc1 (centres unmarked) [Compound 17b, 1-(4-Fluorophenyl)-5-hydroxydodecan-3-one] | the most potent among the synthesized compounds | the most potent in the series; also recorded: stronger inhibition of biofilm formation than the known anti-biofilm agent (S)-6-gingerol | 
17 | CCCCCCCC(O)CC(=O)CCc1cccc(OC)c1 (centres unmarked) [Compound 20b, 5-Hydroxy-1-(3-methoxyphenyl)dodecan-3-one] | relatively weaker than those of the other compounds |  | 
18 | CCCCCCCC(O)CC(=O)CCc1ccccc1 (centres unmarked) [Compound 15b, 5-Hydroxy-1-phenyldodecan-3-one] | relatively weaker than those of the other compounds |  | 
19 | CCCCCCCC(O)CC(=O)/C=C/c1ccc(O)c(OC)c1 (racemic) [Compound 21b, (E)-5-Hydroxy-1-(4-hydroxy-3-methoxyphenyl)dodec-1-en-3-one] | slightly stronger LasR affinity; also recorded: more potent than compound 1c |  | 
20 | CCCCCC(O)CC(=O)CCc1ccc(F)c(OC)c1 (centres unmarked) [Compound 16a, 1-(4-Fluoro-3-methoxyphenyl)-5-hydroxydecan-3-one] | preserved the LasR-inhibitory activity | the most potent in the series | 
21 | CCCCCC(O)CC(=O)CCc1cccc(OC)c1 (centres unmarked) [Compound 20a, 5-Hydroxy-1-(3-methoxyphenyl)decan-3-one] | decreased the LasR-antagonistic activity |  | 

From patent US11964935B2, “Gingerol derivative having inhibitory activity against biofilm formation and pharmaceutical composition comprising same as effective ingredient for preventing or treating biofilm-caused infection symptom” (Korea University Research and Business Foundation, Sejong …, priority 2017, dated 2024)
